Reference: US20240277717A1, “APPLICATION OF GANCICLOVIR IN PREPAPRATION OF MEDICINE FOR TREATING ALLERGIC RHINITIS” (Union Hospital, Tongji Medical College, Huazhong University …, priority 2023, published 2024)

Tested on: AR patients
Test: Specific cases: earlier treatment reported in the patient history
Assay type: in vivo, human

Substance: Omalizumab
- nasal symptoms after earlier treatment (patient history) (Case 4, injected, before GCV): did not ameliorate
- nasal symptoms after earlier treatment (patient history) (Case 5, before GCV): without any improvement
